From patent publication EP4741389A1, “KAT6 INHIBITOR” (Shanghai Qilu Pharmaceutical Research and Development …, priority 2023, dated 2025) come the findings set out here.

The target of test [1] is T1, KAT6A (Homo sapiens, UniProt Q92794).
T1 construct: purchased Active Motif 81223
Kind of test: KATs acetyltransferase enzyme activity assay (TR-FRET), KAT6A. The note with it: Biotin-H3 (1-21) and AcCOA, 90 minutes at room temperature. Format: biochemical.

The target of test [2] is T2, KAT6B (Homo sapiens, UniProt Q8WYB5).
T2 construct: purchased Active Motif 81224
T2 sequence (Q8WYB5 whole entry): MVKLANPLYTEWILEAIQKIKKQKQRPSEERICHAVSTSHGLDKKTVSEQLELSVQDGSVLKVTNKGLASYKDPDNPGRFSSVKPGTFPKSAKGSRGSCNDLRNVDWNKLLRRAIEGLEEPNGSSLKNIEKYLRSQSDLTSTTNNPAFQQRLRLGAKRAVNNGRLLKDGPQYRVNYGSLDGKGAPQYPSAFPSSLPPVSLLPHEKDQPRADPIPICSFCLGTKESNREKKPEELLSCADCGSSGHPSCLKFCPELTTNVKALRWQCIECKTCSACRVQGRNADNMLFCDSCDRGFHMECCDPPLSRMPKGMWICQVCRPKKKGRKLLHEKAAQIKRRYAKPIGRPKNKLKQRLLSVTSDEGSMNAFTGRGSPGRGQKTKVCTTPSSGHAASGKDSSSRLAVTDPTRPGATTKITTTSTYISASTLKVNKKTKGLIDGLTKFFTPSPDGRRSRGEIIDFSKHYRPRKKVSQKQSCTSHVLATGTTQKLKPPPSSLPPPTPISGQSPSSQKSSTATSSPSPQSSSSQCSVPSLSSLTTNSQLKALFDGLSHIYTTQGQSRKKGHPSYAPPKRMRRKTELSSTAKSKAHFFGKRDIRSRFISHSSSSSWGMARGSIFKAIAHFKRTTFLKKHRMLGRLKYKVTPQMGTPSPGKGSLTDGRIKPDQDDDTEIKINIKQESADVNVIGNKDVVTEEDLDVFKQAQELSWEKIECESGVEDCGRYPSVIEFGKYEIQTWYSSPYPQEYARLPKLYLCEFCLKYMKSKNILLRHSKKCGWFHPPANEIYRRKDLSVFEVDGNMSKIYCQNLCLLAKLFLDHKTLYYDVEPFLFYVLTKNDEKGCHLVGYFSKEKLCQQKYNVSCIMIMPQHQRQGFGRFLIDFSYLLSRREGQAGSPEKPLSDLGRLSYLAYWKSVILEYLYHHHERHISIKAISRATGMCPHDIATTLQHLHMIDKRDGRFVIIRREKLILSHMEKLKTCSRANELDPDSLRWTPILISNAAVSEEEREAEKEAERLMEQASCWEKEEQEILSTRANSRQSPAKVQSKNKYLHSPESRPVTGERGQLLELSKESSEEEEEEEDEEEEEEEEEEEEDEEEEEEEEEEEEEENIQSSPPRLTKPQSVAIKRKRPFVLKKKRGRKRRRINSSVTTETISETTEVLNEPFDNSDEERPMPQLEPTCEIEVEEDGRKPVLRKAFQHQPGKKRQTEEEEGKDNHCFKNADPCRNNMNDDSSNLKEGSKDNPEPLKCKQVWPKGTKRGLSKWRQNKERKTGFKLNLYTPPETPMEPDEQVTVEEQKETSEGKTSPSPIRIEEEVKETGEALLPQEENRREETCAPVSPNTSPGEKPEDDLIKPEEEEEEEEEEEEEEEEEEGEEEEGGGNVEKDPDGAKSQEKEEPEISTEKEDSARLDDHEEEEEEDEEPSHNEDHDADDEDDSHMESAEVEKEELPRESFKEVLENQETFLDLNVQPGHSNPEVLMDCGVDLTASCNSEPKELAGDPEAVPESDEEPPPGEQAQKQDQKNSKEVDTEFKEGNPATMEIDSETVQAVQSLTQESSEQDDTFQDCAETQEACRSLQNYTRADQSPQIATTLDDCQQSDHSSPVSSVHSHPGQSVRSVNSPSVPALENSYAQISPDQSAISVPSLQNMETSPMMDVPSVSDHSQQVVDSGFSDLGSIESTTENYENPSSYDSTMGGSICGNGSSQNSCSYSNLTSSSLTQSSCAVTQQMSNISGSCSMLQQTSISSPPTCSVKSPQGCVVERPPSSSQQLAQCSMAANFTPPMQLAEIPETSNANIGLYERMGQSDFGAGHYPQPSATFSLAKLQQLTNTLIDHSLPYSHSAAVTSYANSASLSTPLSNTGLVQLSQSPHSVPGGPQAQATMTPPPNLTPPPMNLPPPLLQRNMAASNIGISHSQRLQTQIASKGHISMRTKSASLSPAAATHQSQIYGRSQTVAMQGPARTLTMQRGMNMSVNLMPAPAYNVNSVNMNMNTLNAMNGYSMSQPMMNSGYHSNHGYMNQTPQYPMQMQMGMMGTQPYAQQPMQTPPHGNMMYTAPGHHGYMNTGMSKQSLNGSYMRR
Kind of test: KATs acetyltransferase enzyme activity assay (TR-FRET), KAT6B. The conditions noted are these: Biotin-H3 (1-21) and AcCOA, 90 minutes at room temperature. Format: biochemical. The procedure, abridged: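 TR-FRET assay in Tris-HCl buffer: enzyme preincubated with compound 15 min at room temperature, then biotin-H3(1-21) peptide and acetyl-CoA added for 90 min at room temperature. Acetylation detected with Eu-anti-acetyl-histone H4 lysine antibody and ULight-streptavidin (60 min), 665/620 nm ratio; IC50 from four-parameter logistic fit.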
Background: In TR-FRET formats the signal depends on donor and acceptor labels being close together.

The test system of test [3] is ZR-75-1 cells. Kind of test: ZR-75-1 cell proliferation assay (CellTiter-Glo). Format: cell-based. The conditions noted are these: Homo sapiens, ZR-75-1, 240 h, total culture period of 10 days, read-out: ZR-75-1 Proliferation Inhibition IC50. The method in brief:
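ZR-75-1 cells were exposed to compound for 10 days in total at 37°C and 5% CO2, being trypsinized, counted and re-seeded every 5 days, with fresh compound added after each re-seeding. Viability was read by CellTiter-Glo luminescence, and IC50 was derived from a four-parameter logistic fit.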
On the technique in general: Cellular ATP, detected with luciferase, serves as a proxy for viable cell number.

T1 sequence (Q92794 488-778 limits assumed): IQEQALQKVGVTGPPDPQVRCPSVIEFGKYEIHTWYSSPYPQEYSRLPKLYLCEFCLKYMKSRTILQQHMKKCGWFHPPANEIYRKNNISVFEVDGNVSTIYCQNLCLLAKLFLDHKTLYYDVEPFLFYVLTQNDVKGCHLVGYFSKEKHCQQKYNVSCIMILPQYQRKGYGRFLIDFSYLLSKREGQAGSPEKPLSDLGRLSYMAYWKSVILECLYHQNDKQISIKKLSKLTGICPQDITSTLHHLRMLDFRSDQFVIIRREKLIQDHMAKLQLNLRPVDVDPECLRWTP

In the case of `COc1ccc2c(c1S(=O)(=O)Nc1noc3cc(Cn4cccn4)cc(OC)c13)OC[C@@H]1C[C@H]21` [Compound 5-P2, (1aR,7bS)-N-(6-((1H-Pyrazol-1-yl)methyl)-4-methoxybenzo[d]isoxazol-3-yl)-5-methoxy-1,1a,2,7b-tetrahydrocyclopropa[c]chromene-4-sulfonamide], the IC50 in test [1] came to 1.1 nM; in test [2], 1.6 nM; in test [3], 0.1 nM.

For the molecule `COc1ccc2c(c1S(=O)(=O)Nc1noc3cc(Cn4cccn4)cc(OC)c13)OCCCO2` [Compound 2, N-(6-((1H-Pyrazol-1-yl)methyl)-4-methoxybenzo[d]isoxazol-3-yl)-7-methoxy-3,4-dihyd ro-2H-benzo[b][1,4]dioxepine-6-sulfonamide], the IC50 in test [1] came out at 3.2 nM; in test [2], 25.2 nM; in test [3], 3.2 nM.
